According to patent EP4534610A1, “FLUOROPHORE COMPOUNDS AND PRODUCTION THEREOF” (Université Fribourg, priority 2023, dated 2025):

Experiments:
HEK/OVA-B16 cells = experiment: Staining and fluorescence imaging of living cells; type: cell-based; conditions: for morphological signs of cell toxicity: 10µM; for uptake by living cells: dyes applied for up to 1 hour at 10µM; for fluorescence emission spectrum in situ, peak: excited at 405 nm
[1] = Optical properties in different solvents: emission and absorption maxima, lifetime, quantum yield; type: physicochemical; conditions: for Lifetime, τavr.: multiexponential lifetime represented with τavr.; for Φf: quantum yield determined using integrating sphere; for λ^em max: λex = 405 nm
Procedure: (§1) ^1H-NMR was recorded on 400 MHz (Brucker DRX 400) and ^13C-NMR spectra were recorded on Bruker 100 MHz spectrometer at room temperature with d6-DMSO as a solvent and tetramethylsilane (TMS) as the internal standard. Mass spectra were performed on the Bruker-ION Trap Ms. Fluorescence spectra were measured on an Edinburgh Instruments FS5 Spectrofluorometer. Absorption spectra were determined on a Perkin Elmer UV/VIS Lambda 2 (190-1100 nm) spectrophotometer. IR spectra were recorded on a Perking Elmer FT-IR spectrometer Frontier 4000-400 cm^-1. Single crystal structures were obtained from a STOE-IPDS II (Single crystal diffractometer λ-Mo), solved and refined using SHELXT software package.

[2] = Photostability: UV-visible spectra of 5µM solutions after continuous irradiation with 400 nm light (Xenon-arc lamp, 300 Watt); type: physicochemical; conditions: for stability of the absorbance under irradiation: up to 24h
Procedure: To examine the stability of the absorbance of PyPeBr and PyPe, 5µM solution (2.5 mL) of the respective compounds were prepared using different solvents. The compounds were then irradiated with 400nm using a Xenon-arc lamp at 300 Watt (25 nm FWHM). Following predefined irradiation periods, indicated in Figures 6A to 6H, UV-visible spectra were collected to monitor the stability of PyPeBr and PyPe in different solvents.

[3] = Photoluminescence emission spectra in different solvents; type: physicochemical; conditions: excitation at 370nm
Procedure: The photo-physical properties of these dye molecules with stilbene-like motifs were investigated in different solvents in order to determine their maximum absorption and emission wavelengths (Figures 6A to 6C). The compounds were dissolved in Acetonitrile (CH3CN), chloroform (CHCl3), c-hexane (c-HEX), dichloromethane (DCM), dimethylformamide (DMF), methanol (MeOH), tetrahydrofuran (THF), and toluene (Tol).
The highest emission intensity was detected when THF and c-Hex were used as solvents, with lesser intensity recorded for DMF and Tol. PyPe emits light in the blue range, with emission peaks between 380nm and 550nm. Absolute intensities of up to 3.5 x 10^6 were recorded for PyPe in c-Hex.
The photoluminescence spectra of PyPeBr upon excitation at 440nm when dissolved in CH3CN, CHCl3, DCM, DMF, MeOH, or Tol, and upon excitation at 370 nm when dissolved in c-Hex or THF is shown in Figure 4B. PyPeBr has a relatively broad emission spectrum, which depends on the solvent used. The emission spectrum of PyPeBr can be as broad to cover most of the visible range. This broad emission range offers the possibility to select a desired wavelength for imaging by applying appropriate filters.
PyPh emits light in the blue range, ranging from 400nm to 500nm. […] The loss in stability is due to the self-photobleaching reactions, which are induced by irradiation.
as §1

C(=C\c1ccc2ccc3cccc4ccc1c2c34)/c1ccncc1 [PyPe, (E)-4-(2-(pyren-1-yl)vinyl)pyridine, reference compound]
morphological signs of cell toxicity (HEK/OVA-B16 cells): No morphological signs of cell toxicity | staining pattern in cells (HEK/OVA-B16 cells; HEK/OVA-B16 cells): cytosolic staining and subcellular partitioning | uptake by living cells (HEK/OVA-B16 cells): readily taken up | fluorescence emission spectrum in situ, peak (HEK/OVA-B16 cells): 465 nm | Knr ([1]; solvent CH3CN): 0.38 10^8 s^-1 | kr ([1]; solvent CH3CN): 4.44 10^8 s^-1 | Lifetime, τavr. ([1]; solvent CH3CN): 2.07 ns | Φf ([1]; solvent CH3CN): 0.92 | λ^em max ([1]; solvent CH3CN): 616 nm | Knr ([1]; solvent CHCl3): 0.66 10^8 s^-1 | kr ([1]; solvent CHCl3): 5.44 10^8 s^-1 | Lifetime, τavr. ([1]; solvent CHCl3): 1.65 ns | Φf ([1]; solvent CHCl3): 0.89 | λ^em max ([1]; solvent CHCl3): 607 nm | Knr ([1]; solvent DCM): 2.38 10^8 s^-1 | kr ([1]; solvent DCM): 3.43 10^8 s^-1 | Lifetime, τavr. ([1]; solvent DCM): 1.72 ns | Φf ([1]; solvent DCM): 0.59 | λ^em max ([1]; solvent DCM): 623 nm | Knr ([1]; solvent DMF): 0.26 10^8 s^-1 | kr ([1]; solvent DMF): 2.60 10^8 s^-1 | Lifetime, τavr. ([1]; solvent DMF): 3.5 ns | Φf ([1]; solvent DMF): 0.91 | Knr ([1]; solvent MeOH): 0.65 10^8 s^-1 | kr ([1]; solvent MeOH): 3.19 10^8 s^-1 | Lifetime, τavr. ([1]; solvent MeOH): 2.6 ns | Φf ([1]; solvent MeOH): 0.83 | λ^em max ([1]; solvent MeOH): 611 nm | Knr ([1]; solvent THF): 2.17 10^8 s^-1 | kr ([1]; solvent THF): 2.26 10^8 s^-1 | Lifetime, τavr. ([1]; solvent THF): 2.26 ns | Φf ([1]; solvent THF): 0.51 | λ^em max ([1]; solvent THF): 613 nm | Knr ([1]; solvent Toluene): 0.53 10^8 s^-1 | kr ([1]; solvent Toluene): 3.91 10^8 s^-1 | Lifetime, τavr. ([1]; solvent Toluene): 2.25 ns | Φf ([1]; solvent Toluene): 0.88 | λ^em max ([1]; solvent Toluene): 603 nm | Knr ([1]; solvent c-Hex): 0.47 10^8 s^-1 | kr ([1]; solvent c-Hex): 0.84 10^8 s^-1 | Lifetime, τavr. ([1]; solvent c-Hex): 7.58 ns | Φf ([1]; solvent c-Hex): 0.64 | stability of the absorbance under irradiation ([2]; 5µM in DCM): an early bleaching effect could be detected within the first 15 minutes of irradiation | stability of the absorbance under irradiation ([2]; 5µM in MeOH): an early bleaching effect could be detected within the first 15 minutes of irradiation | absolute emission intensities ([3]; in c-Hex): up to 3.5 x 10^6

C(=C\c1ccc2ccc3cccc4ccc1c2c34)/c1ccccc1 [PyPh, (E)-1-styrylpyrene]
morphological signs of cell toxicity (HEK/OVA-B16 cells): No morphological signs of cell toxicity | uptake by living cells (HEK/OVA-B16 cells): readily taken up | fluorescence emission spectrum in situ, peak (HEK/OVA-B16 cells): 450 nm | stability of the absorbance under irradiation ([2]; 5µM in DCM): Comparable results | stability of the absorbance under irradiation ([2]; 5µM in MeCN): gradually decreases over a 24h irradiation period, with a significant drop detected as early as after 15 mins of irradiation | stability of the absorbance under irradiation ([2]; 5µM in MeOH): gradually decreases over a 24h irradiation period, with a significant drop detected as early as after 15 mins of irradiation | highest emission intensity, factor less than optimal emission intensities of PyPeBr [3]: ~1000

Cascade Blue
irradiation time to complete photobleaching ([2]; 5µM in ultra-pure water (Milli Q purification)): ≤ 8 h
